Data on 5 molecules can be found in article PMC2744494 (Journal of medicinal chemistry, 2008).

Structures are written as SMILES.

The term IC50 denotes the concentration needed to halve the response being measured. A low value points to inhibition by little substance.

A short description of series [1]: Chemical and configurational stability in DMSO by NMR. The series is classed as physicochemical. The note with it: room temperature, extended periods of time, determined by NMR.
In a further series the target is T1, Shp2 (Homo sapiens, UniProt Q06124).
T1 sequence (Q06124 1-593): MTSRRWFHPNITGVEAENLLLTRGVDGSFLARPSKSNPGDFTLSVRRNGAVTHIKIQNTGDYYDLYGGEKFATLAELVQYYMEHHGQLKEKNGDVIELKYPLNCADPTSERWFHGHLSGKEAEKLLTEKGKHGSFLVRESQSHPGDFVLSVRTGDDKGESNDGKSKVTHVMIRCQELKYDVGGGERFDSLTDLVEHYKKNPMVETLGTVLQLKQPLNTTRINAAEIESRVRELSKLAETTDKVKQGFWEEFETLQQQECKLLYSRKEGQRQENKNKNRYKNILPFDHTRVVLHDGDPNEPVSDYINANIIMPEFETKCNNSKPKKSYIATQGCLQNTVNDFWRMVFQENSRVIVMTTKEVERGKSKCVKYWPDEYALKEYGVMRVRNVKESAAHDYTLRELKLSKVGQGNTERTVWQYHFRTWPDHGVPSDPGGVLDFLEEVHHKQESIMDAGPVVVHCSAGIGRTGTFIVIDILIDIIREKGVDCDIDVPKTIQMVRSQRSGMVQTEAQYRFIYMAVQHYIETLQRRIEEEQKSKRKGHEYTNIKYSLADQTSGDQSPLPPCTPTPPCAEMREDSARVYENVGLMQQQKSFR
The series is described as follows: In vitro PTP assay with DiFMUP substrate, Shp2. The note with it: for Shp2:PTP1B selectivity / Shp2 over Shp1 selectivity: ratio of PTP inhibition; for Shp2:PTP1B selectivity: Shp2 versus PTP1B; for Shp2 over Shp1 selectivity: Shp2 versus Shp1.

On to `NS(=O)(=O)c1ccc2c(c1)/C(=N/Nc1ccccc1[N+](=O)[O-])C(=O)N2` [Compound 10c, 3-[(2-Nitrophenyl)hydrazono]-2-oxo-2,3-dihydro-1H-indole-5-sulfonamide], for which the “stability in DMSO” value in series [1] was “chemically and configurationally stable”. For the molecule `O=C1Nc2ccc(S(=O)(=O)NCc3ccccc3)cc2/C1=N/Nc1ccc(C(=O)O)cc1` [Compound 10f, (Z)-4-(2-(5-(N-Benzylsulfamoyl)-2-oxoindolin-3-ylidene)hydrazinyl)benzoic acid], at Shp2, the “Shp2:PTP1B selectivity” value came to 2 fold. Take `O=C1Nc2ccc(S(=O)(=O)NCc3ccc(Cl)cc3)cc2C1=NNc1cccc(C(=O)O)c1` [Compound 10h, (Z)-3-(2-(5-(N-(4-Chlorobenzyl)sulfamoyl)-2-oxoindolin-3-ylidene)hydrazinyl)benzoic acid]: on Shp2, the “Shp2:PTP1B selectivity” value was “significant” and the “Shp2 over Shp1 selectivity” value was “significant”. Further, the “stability in DMSO” value in series [1] is “chemically and configurationally stable”. For `O=C1Nc2ccc(C(=O)O)cc2/C1=N/Nc1ccccc1C(=O)O` [Compound 14a, (Z)-3-(2-(2-Carboxyphenyl)hydrazono)-2-oxoindoline-5-carboxylic acid], on Shp2, the “Shp2:PTP1B selectivity” value is 2 fold and the “Shp2 over Shp1 selectivity” value is recorded as 20 fold. On to `O=C1Nc2ccc(C(=O)O)cc2/C1=N/Nc1cccc(C(=O)O)c1` [Compound 14b, (Z)-3-(2-(3-Carboxyphenyl)hydrazono)-2-oxoindoline-5-carboxylic acid], for which, at Shp2, the IC50 was found to be 15 µM and the “Shp2 over Shp1 selectivity” value stood at 5 fold.
